In patent publication US6355671B1, “SULFONATED DERIVATIVES OF CYCLIC PHENOL SULFIDES, PROCESS FOR THE PREPARATION THEREOF, […] […] […] PHENOL SULFIDES, METHODS FOR […] RECOVERY […], AND DRUG COMPOSITIONS CONTAINING THE SULFIDES” (Cosmo Research Institute, priority 1997, dated 2002):

What was measured:
[1] = system: MOLT-4 (T cell leukemia cell); conditions: MOLT-4 cell density after 3 days of culture, read from FIG. 2
Protocol: In order to evaluate cytotoxicity of the cyclic phenol sulfide (III) in a human cell line, MOLT-4 (T cell leukemia cell, Riken Gene Bank accession number RCB 0206), was used in the test. The cyclic phenol sulfide (III) was dissolved in a medium (RPMI-1640 containing 10% FCS (fetal calf serum), kanamycin (5,000 U/ml) and streptomycin (5 mg/ml)) to a concentration of 2.5 mM, and the solution was made into 2-fold serial dilutions to prepare cyclic phenol sulfide (III)-containing medium samples having 11 steps of concentration. Each of the cyclic phenol sulfide (III)-containing medium samples was dispensed into wells of a 6-well plate in 2.5 ml, a MOLT-4 culture broth of 2×10^5 cells/ml was dispensed into the resulting wells in 2.5 ml, the cells were cultured at 37° C. for 3 days in a moist incubator containing 5% CO2, and then the cell density was measured using Celltac MEK-5254 (manufactured by NIHON KOHDEN).

Protocol for HIV-1: The cyclic phenol sulfide (III) was dissolved in the medium used in Example 8 to a concentration of 2.5 mM, and the solution was made into 2-fold serial dilutions to prepare cyclic phenol sulfide (III)-containing medium samples having 11 steps of concentration. Each of the cyclic phenol sulfide (III)-containing medium samples was dispensed into wells of a 6-well plate in 2.5 ml, a culture broth containing 1.64×10^5 cells/ml of MOLT-4 or 1.82×10^4 cells/ml of HIV-1-infected MOLT-4 was dispensed into the resulting wells in 2.5 ml, the cells were cultured at 37° C. for 3 days in a moist incubator containing 5% CO2, the resulting cell density was measured using Celltac MEK-5254 (manufactured by NIHON KOHDEN), and then a portion of the medium containing 10^6 cells was taken out to purify DNA. The number of HIV-1 DNA contained in 500 ng of the cell DNA was determined by competitive nested PCR.
Firstly, 500 ng of each cell DNA sample was mixed with 1 μM of the primers JA9 and JA12, 0.2 mM dNTP, 50 mM KCl, 10 mM Tris-HCl (pH 8.3), 4 mM MgCl2, 5,000 copies of the competitor and 2 units of Taq DNA polymerase manufactured by Roche), and the total volume was adjusted to 100 μl with Milli-Q water. […]

For `O=S(=O)([O-])c1cc2c(O)c(c1)Sc1cc(S(=O)(=O)[O-])cc(c1O)Sc1cc(S(=O)(=O)[O-])cc(c1O)Sc1cc(S(=O)(=O)[O-])cc(c1O)S2.[Na+].[Na+].[Na+].[Na+]` [cyclic phenol sulfide (III), sodium salt of 25,26,27,28-tetrahydroxy-2,8,14,20-tetrathia[19.3.1.1^3,71^9,131^15,19]octacosa-1(25),3,5,7(28),9,11,13(27),15,17,19(26),21,23-dodecaene-5,11,17,23-tetrasulfonic acid], the CC50 [1] was 700 µM, the IC50 (HIV-1; HIV-1 DNA concentration after 3 days of infection, MOLT-4 / HIV-1-infected MOLT-4 co-culture, read from FIG. 2) was 40 µM and the “therapeutic ratio (=CC50/IC50)” value (HIV-1; from Example 8 and Example 9) was 18.
